# From patent US7928098B2, “Therapeutic and/or preventive agents for a sleep disorder” (Kyowa Hakko Kirin Co., Ltd., priority 2005, dated 2011)
# Columns and labels:
# [1] = tested on: ddY male mice; assay: Effect on pentobarbital sodium-induced sleeping time (loss of righting reflex); type: in vivo; conditions: test compound 10 mg/kg p.o. one hour before pentobarbital-Na 25 mg/kg s.c.
# Description: The test was conducted to examine influence of Compound (I) of the present invention on pentobarbital sodium-induced sleeping time, according to the method of Iyakuhin no Kaihatsu, Vol. 9, Iyakuhin no Tansaku I, “antihypnotic”, p. 220-226, Hirokawa Shoten.
# For the test, ddY male mice (19-21 g body weight; Japan SLC, Inc.) were used. All test compounds were used by suspending in distilled water (Otsuka Pharmaceutical Factory, Inc.) containing 0.5 volume/weight % methylcellulose (0.5% MC: Wako Pure Chemical Industries, Ltd.). A volume of 0.1 mL was administered per 10 g body weight of mice.
# Groups of seven mice were used. To the control groups were orally administrated 0.5% MC, whereas a suspension of the test compound was orally administered to the test compound administered groups. One hour after the administration, pentobarbital sodium (pentobarbital-Na: Tokyo Chemical Industry Co., Ltd., 25 mg/kg) was administered subcutaneously. Mouse placed in a recumbent position, the mouse immediately returns to a proper upright position (this is known as righting reflex). However, the administration of pentobarbital sodium eliminated the righting reflex in the control groups. The time period in which the administration of […] eliminated the righting reflex was regarded as a sleeping time. By a measurement of time disappearing righting reflex immediately after the administration, the sleeping time was determined.
# [2] = Table 5-2, groups of seven, controls 40.00 ± 5.32 (r5) and 45.87 ± 4.17 (r12)
# [3] = Table 5-1, groups of seven, controls 52.12 ± 5.20 (r5) and 35.56 ± 5.21 (r11)
melting point [°C],Structure (SMILES),further results
,"O=C(Nc1nc(-c2ccco2)c(C(=O)c2ccccc2)s1)c1ccncc1 [Compound 508, N-[5-Benzoyl-4-(2-furyl)thiazol-2-yl]pyridine-4-carboxamide]","Sleeping time (min) Mean value ± standard deviation [1, 2]: 14.26 ± 4.35 min"
,"O=C(Nc1nc(-c2ccco2)c(-c2ccncc2)s1)c1ccco1 [Compound 7, N-[4-(2-Furyl)-5-(4-pyridyl)thiazol-2-yl]furan-2-carboxamide]","Sleeping time (min) Mean value ± standard deviation [1, 3]: 6.38 ± 4.58 min"
,"O=C(Nc1nc(-c2ccco2)c(C(=O)c2ccc(F)cc2)s1)c1ccncc1 [Compound 78, N-[5-(4-Fluorobenzoyl)-4-(2-furyl)thiazol-2-yl]pyridine-4-carboxamide]","Sleeping time (min) Mean value ± standard deviation [1, 2]: 8.66 ± 4.67 min"
,"O=C(Nc1nc(-c2ccco2)c(-c2ccncc2)s1)c1ccoc1 [Compound 8, N-[4-(2-Furyl)-5-(4-pyridyl)thiazol-2-yl]furan-3-carboxamide]","Sleeping time (min) Mean value ± standard deviation [1, 3]: 4.16 ± 4.16 min"
,"O=C(Nc1nc(-c2ccco2)c(-c2ccncc2)s1)c1cccnc1 [Compound 5, N-[4-(2-Furyl)-5-(4-pyridyl)thiazol-2-yl]pyridine-3-carboxamide]","Sleeping time (min) Mean value ± standard deviation [1, 3]: 0.82 ± 0.82 min"
,"O=C(Nc1nc(-c2ccco2)c(-c2ccncc2)s1)c1ccncc1 [Compound 1, N-[4-(2-Furyl)-5-(4-pyridyl)thiazol-2-yl]pyridine-4-carboxamide]","Sleeping time (min) Mean value ± standard deviation [1, 3]: 15.58 ± 8.50 min"
124 to 129,"O=C(Nc1nc(-c2ccco2)c(C(=O)C2CCOCC2)s1)c1ccc2c(c1)OC(F)(F)O2 [Compound 403, 2,2-Difluoro-N-[4-(2-furyl)-5-(tetrahydropyran-4-ylcarbonyl)thiazol-2-yl]-1,3-benzodioxol-5-carboxamide]",
153 to 154,"CC(C)(O)C(=O)Nc1nc(-c2ccco2)c(C(=O)c2ccccc2)s1 [Compound 45, N-[5-Benzoyl-4-(2-furyl)thiazol-2-yl]-2-hydroxy-2-methylpropanamide]",
187 to 188,"Cc1cc(C(=O)Nc2nc(-c3ccco3)c(C(=O)c3ccccn3)s2)ccn1 [Compound 120, N-[4-(2-Furyl)-5-(pyridin-2-ylcarbonyl)thiazol-2-yl]-2-methylpyridine-4-carboxamide]",
209 to 213,"Cc1cc(C(=O)Nc2nc(-c3ccco3)c(C(=O)c3ccccn3)s2)no1 [Compound 151, N-[4-(2-Furyl)-5-(pyridin-2-ylcarbonyl)thiazol-2-yl]-5-methylisoxazole-3-carboxamide]",
108 to 110,"O=C(c1sc(NC(=O)N2CCOCC2)nc1-c1ccco1)C1CCCC1 [Compound 340, N-[5-(Cyclopentylcarbonyl)-4-(2-furyl)thiazol-2-yl]morpholine-4-carboxamide]",
195 to 220,"O=C(Nc1nc(-c2ccco2)c(C(=O)c2ccc(N3CCOCC3)nc2)s1)c1ccncc1 [Compound 231, N-[4-(2-Furyl)-5-(2-morpholinopyridin-5-ylcarbonyl)thiazol-2-yl]pyridine-4-carboxamide]",
148 to 149,"CCCC(=O)Nc1nc(-c2ccco2)c(C(=O)c2ccccn2)s1 [Compound 97, N-[4-(2-Furyl)-5-(pyridin-2-ylcarbonyl)thiazol-2-yl]-butanamide]",
183 to 186,"Cc1occc1C(=O)Nc1nc(-c2ccco2)c(C(=O)c2ccccn2)s1 [Compound 147, N-[4-(2-Furyl)-5-(pyridin-2-ylcarbonyl)thiazol-2-yl]-2-methylfuran-3-carboxamide]",
121 to 126,"CCOCC(=O)Nc1nc(-c2ccco2)c(C(=O)C2CCOCC2)s1 [Compound 437, 2-Ethoxy-N-[4-(2-furyl)-5-(tetrahydropyran-4-ylcarbonyl)-thiazol-2-yl]acetamide]",
176 to 178,"O=C(CNC12CC3CC(CC(O)(C3)C1)C2)Nc1nc(-c2ccco2)c(C(=O)C2CCOCC2)s1 [Compound 483, N-[4-(2-Furyl)-5-(tetrahydropyran-4-ylcarbonyl)thiazol-2-yl]-2-(3-hydroxyadamantan-1-ylamino)acetamide]",
186 to 187,"CC(C)(C)C(=O)Nc1nc(-c2ccco2)c(C(=O)c2ccccn2)s1 [Compound 98, N-[4-(2-Furyl)-5-(pyridin-2-ylcarbonyl)thiazol-2-yl]-2,2-dimethylpropanamide]",
220 to 225,"N#Cc1ccc(C(=O)Nc2nc(-c3ccco3)c(C(=O)C3CCC3)s2)cc1 [Compound 332, 4-Cyano-N-[5-(cyclobutylcarbonyl)-4-(2-furyl)thiazol-2-yl]benzamide]",

melting point [°C],Structure (SMILES),further results
231 to 232,"O=C(Nc1nc(-c2ccco2)c(C(=O)C2CCOCC2)s1)c1cccs1 [Compound 422, N-[4-(2-Furyl)-5-(tetrahydropyran-4-ylcarbonyl)thiazol-2-yl]thiophene-2-carboxamide]",
225 to 248,"O=C(Nc1nc(-c2ccco2)c(C(=O)c2ccccc2)s1)c1ccnnc1 [Compound 61, N-[5-Benzoyl-4-(2-furyl)thiazol-2-yl]pyridazine-4-carboxamide]",
166 to 170,"O=C(Nc1nc(-c2ccco2)c(C(=O)C2CCOCC2)s1)c1ccc(N2CCOCC2)nc1 [Compound 408, N-[4-(2-Furyl)-5-(tetrahydropyran-4-ylcarbonyl)thiazol-2-yl]-2-morpholinopyridine-5-carboxamide]",
187 to 189,"O=C(Nc1nc(-c2ccco2)c(C(=O)c2ccccn2)s1)c1ccoc1 [Compound 146, N-[4-(2-Furyl)-5-(pyridin-2-ylcarbonyl)thiazol-2-yl]furan-3-carboxamide]",
104 to 106,"CC1CCN(CC(=O)Nc2nc(-c3ccco3)c(C(=O)c3ccccn3)s2)CC1 [Compound 174, N-[4-(2-Furyl)-5-(pyridin-2-ylcarbonyl)thiazol-2-yl]-2-(4-methylpiperidino)acetamide]",
223 to 230,"O=C(Nc1nc(-c2ccco2)c(C(=O)c2ccccn2)s1)c1ccno1 [Compound 150, N-[4-(2-Furyl)-5-(pyridin-2-ylcarbonyl)thiazol-2-yl]isoxazole-5-carboxamide]",
130 to 131,"Cc1cnc(C(=O)Nc2nc(-c3ccco3)c(C(=O)C3CCOCC3)s2)cn1 [Compound 415, N-[4-(2-Furyl)-5-(tetrahydropyran-4-ylcarbonyl)thiazol-2-yl]-5-methylpyrazine-2-carboxamide]",
197 to 199,"O=C(Nc1nc(-c2ccco2)c(C(=O)c2ccccn2)s1)c1cccs1 [Compound 149, N-[4-(2-Furyl)-5-(pyridin-2-ylcarbonyl)thiazol-2-yl]-thiophene-2-carboxamide]",
162 to 163,"O=C(Nc1nc(-c2ccco2)c(C(=O)c2ccccn2)s1)OC1CCCC1 [Compound 160, Cyclopentyl N-[4-(2-furyl)-5-(pyridin-2-ylcarbonyl)thiazol-2-yl]carbamate]",
246 to 249,"CC(O)c1cc2cc(C(=O)Nc3nc(-c4ccco4)c(C(=O)c4ccccn4)s3)ccc2o1 (stereo not drawn) [Compound 154, N-[4-(2-Furyl)-5-(pyridin-2-ylcarbonyl)thiazol-2-yl]-2-(1-hydroxyethyl)-1-benzofuran-5-carboxamide]",
160 to 162,"O=C(Nc1nc(-c2ccco2)c(C(=O)C2CCOCC2)s1)c1ccccc1Cl [Compound 374, 2-Chloro-N-[4-(2-furyl)-5-(tetrahydropyran-4-ylcarbonyl)-thiazol-2-yl]benzamide]",
191 to 194,"CCCC(=O)c1sc(NC(=O)c2ccncc2)nc1-c1ccco1 [Compound 289, N-[5-Butyryl-4-(2-furyl)thiazol-2-yl]pyridine-4-carboxamide]",
150 to 154,"COc1ccccc1C(=O)Nc1nc(-c2ccco2)c(C(=O)C2CC2)s1 [Compound 326, N-[5-(Cyclopropylcarbonyl)-4-(2-furyl)thiazol-2-yl]-2-methoxybenzamide]",
188 to 190,"O=C(Nc1nc(-c2ccco2)c(C(=O)C2CCOCC2)s1)c1cccc2c1OCCO2 [Compound 400, N-[4-(2-Furyl)-5-(tetrahydropyran-4-ylcarbonyl)thiazol-2-yl]-1,4-benzodioxane-5-carboxamide]",
235 to 236,"O=C(Nc1nc(-c2ccco2)c(C(=O)c2ccccn2)s1)c1ccc2c(c1)OCO2 [Compound 117, N-[4-(2-Furyl)-5-(pyridin-2-ylcarbonyl)thiazol-2-yl]-3,4-methylenedioxybenzamide]",
129 to 130,"CN(C)CC(=O)Nc1nc(-c2ccco2)c(C(=O)C2CCOCC2)s1 [Compound 438, 2-(Dimethylamino)-N-[4-(2-furyl)-5-(tetrahydropyran-4-ylcarbonyl)thiazol-2-yl]acetamide]",
146 to 147,"O=C(CN1CCCCC1)Nc1nc(-c2ccco2)c(C(=O)C2CCOCC2)s1 [Compound 447, N-[4-(2-Furyl)-5-(tetrahydropyran-4-ylcarbonyl)thiazol-2-yl]-2-piperidinoacetamide]",
> 300,"O=C(Nc1nc(-c2ccco2)c(C(=O)c2ccncn2)s1)c1ccncc1 [Compound 282, N-[4-(2-Furyl)-5-(pyrimidine-4-ylcarbonyl)thiazol-2-yl]pyridine-4-carboxamide]",
